# Measured values published in patent publication US10278396B2, “Synergistic Bacillus thuringiensis subsp. kurstaki and cyantraniliprole mixtures for diamondback moth, beet armyworm, sugarcane borer, and soybean looper control” (priority 2016, dated 2019).
# Read-outs that look alike come from different tables or passages of the source.
# Tests used:
# [1] = system: diamondback moth larvae; assay: leaf dip test, diamondback moth larvae; type: in vivo; settings: Plutella xylostella, foliar, Btk 0.54 ppm, cyantraniliprole 0.1 ppm, mixture 0.54 ppm + 0.1 ppm, read-out: % Efficacy
# Method: (§1) For these tests, standardized laboratory leaf dip methods were used to inoculate plant material with treatment(s). Dry, treated leaves were placed into Petri dishes (100×25 mm) containing filter paper wetted with 500 μl of distilled H2O (“dH2O”). Each dish was then infested with between 5 and 10 larvae, dependent on species. Efficacy ratings were taken at specified intervals. Synergy ratings were calculated for each test.
# In this study, the response of diamondback moth larvae to synergistic amounts of Bacillus thuringiensis subsp. kurstaki (“Btk”) and cyantraniliprole was observed.
# % Cexp=A+B−(AB/100), where % Cexp is the expected efficacy and “in which A and B are the control levels given by the single [insecticides]. […] Adopting a conservative approach, Applicant determined synergy to be present at ratios of ≥1.15. […]
# In order to determine synergy, rates below normal field rate ranges must be used. If normal field rate ranges are used, all of the larvae would die (combining a lethal or near lethal dose of Bacillus thuringiensis subsp. kurstaki with a lethal dose of cyantraniliprole would most likely lead to larvae death) in every treatment and synergy would not be able to be determined. […]
# [2] = system: beet armyworm larvae; assay: leaf dip test, beet armyworm larvae; type: in vivo; settings: Spodoptera exigua, foliar, Btk 0.54 ppm, cyantraniliprole 1.0 ppm, mixture 0.54 ppm + 1.0 ppm, read-out: % Efficacy
# Method: as §1
# (§2) % Cexp=A+B−(AB/100), where % Cexp is the expected efficacy and “in which A and B are the control levels given by the single [insecticides]. If the ratio between the experimentally observed efficacy of the mixture Cobs and the expected efficacy of the mixture is greater than 1, synergistic interactions are present in the mixture.” (Gisi, Synergisitic Interaction of Fungicides in Mixtures, The American Phytopathological Society, 86:11, 1273-1279, 1996). Adopting a conservative approach, Applicant determined synergy to be present at ratios of ≥1.15.
# In this study, the response of beet armyworm larvae to synergistic amounts of Bacillus thuringiensis subsp. kurstaki and cyantraniliprole was observed.
# (§3) Bacillus thuringiensis subsp. kurstaki was applied at a concentration of 0.54 ppm (0.54 μg/ml). Cyantraniliprole was applied at a concentration of 1.0 ppm (1.0 μg/ml). […]
# [3] = system: cabbage looper larvae; assay: leaf dip test, cabbage looper larvae; type: in vivo; settings: Trichoplusia ni, foliar, Btk 0.54 ppm, cyantraniliprole 0.50 ppm, mixture 0.54 ppm + 0.50 ppm, read-out: % Efficacy
# Method: as §1, §2
# In this study, the response of cabbage looper larvae to Bacillus thuringiensis subsp. kurstaki and cyantraniliprole was observed.
# Bacillus thuringiensis subsp. kurstaki was applied at a concentration of 0.54 ppm (0.54 μg/ml). Cyantraniliprole was applied at a concentration of 0.50 ppm (0.50 μg/ml). […]
# [4] = system: sugarcane borer larvae; assay: leaf dip test, sugarcane borer larvae; type: in vivo; settings: Diatraea saccharalis, foliar, Btk 0.54 ppm, cyantraniliprole 1.0 ppm, mixture 0.54 ppm + 1.0 ppm, read-out: % Efficacy
# Method: as §1, §2
# In this study, the response of sugarcane borer larvae to synergistic amounts of Bacillus thuringiensis subsp. kurstaki and cyantraniliprole was observed.
# as §3
# [5] = system: southwestern corn borer larvae; assay: leaf dip test, southwestern corn borer larvae; type: in vivo, Diatraea grandiosella; settings: foliar, Btk 0.54 ppm, cyantraniliprole 0.1 ppm, mixture 0.54 ppm + 0.1 ppm, read-out: % Efficacy
# Method: as §1, §2
# In this study, the response of southwestern corn borer larvae to Bacillus thuringiensis subsp. kurstaki and cyantraniliprole was observed.
# Bacillus thuringiensis subsp. kurstaki was applied at a concentration of 0.54 ppm (0.54 μg/ml). Cyantraniliprole was applied at a concentration of 0.1 ppm (0.1 μg/ml). […]
# [6] = system: soybean looper larvae; assay: leaf dip test, soybean looper larvae; type: in vivo, Chrysodeixis includens; settings: foliar, Btk 0.54 ppm, cyantraniliprole 1.0 ppm, mixture 0.54 ppm + 1.0 ppm, read-out: % Efficacy
# Method: as §1, §2
# In this study, the response of soybean looper larvae to synergistic amounts of Bacillus thuringiensis subsp. kurstaki and cyantraniliprole was observed.
# as §3
# [7] = system: corn earworm larvae; assay: leaf dip test, corn earworm larvae; type: in vivo; settings: Helicoverpa zea, foliar, Btk 0.54 ppm, cyantraniliprole 10.0 ppm, mixture 0.54 ppm + 10.0 ppm, read-out: % Efficacy
# Method: as §1, §2
# In this study, the response of corn earworm larvae to Bacillus thuringiensis subsp. kurstaki and cyantraniliprole was observed.
# Bacillus thuringiensis subsp. kurstaki was applied at a concentration of 0.54 ppm (0.54 μg/ml). Cyantraniliprole was applied at a concentration of 10.0 ppm (10.0 μg/ml). […]
smiles,measurement,setting,value
"CNC(=O)c1cc(C#N)cc(C)c1NC(=O)c1cc(Br)nn1-c1ncccc1Cl [Cyantraniliprole, 3-Bromo-1-(3-chloro-2-pyridinyl)-N-[4-cyano-2-methyl-6-(methylcarbamoyl)phenyl]-1H-pyrazole-5-carboxamide]",Emax at 0.1 ppm,[1]; 24 h after treatment,16%
same,Emax at 0.1 ppm,[1]; 48 h after treatment,47%
same,Emax at 1 ppm,[2]; 24 h after treatment,20%
same,Emax at 1 ppm,[2]; 48 h after treatment,37%
same,Emax at 0.5 ppm,[3]; 24 h after treatment,15%
same,Emax at 0.5 ppm,[3]; 48 h after treatment,51%
same,Emax at 1 ppm,[4]; 24 h after treatment,30%
same,Emax at 1 ppm,[4]; 48 h after treatment,32%
same,Emax at 0.1 ppm,[5]; 24 h after treatment,23%
same,Emax at 0.1 ppm,[5]; 48 h after treatment,39%
same,Emax at 1 ppm,[6]; 24 h after treatment,6%
same,Emax at 1 ppm,[6]; 48 h after treatment,10%
same,Emax at 10 ppm,[7]; 24 h after treatment,29%
same,Emax at 10 ppm,[7]; 48 h after treatment,33%
